Source: the supplement of paper PMC10702517
± gives the standard deviation.

Assay: chemical recovery from spiked human plasma; higher = better extraction
Conditions: pooled human plasma
[1] = extraction method: SPE only (HLB 96-well)
[2] = extraction method: solvent precipitation (ACN + hexane)
[3] = extraction method: PES+SPE (3 d PDMS equilibration then HLB SPE)
[4] = extraction method: SPE only (HLB 96-well), PES comparison experiment

Structure (SMILES)	chemical recovery [1] [%]	chemical recovery [2] [%]	chemical recovery [3] [%]	chemical recovery [4] [%]
CC[C@H](C)[C@H]1O[C@]2(C=C[C@@H]1C)C[C@@H]1C[C@@H](C/C=C(\C)[C@@H](O[C@H]3C[C@H](OC)[C@@H](O[C@H]4C[C@H](OC)[C@@H](NC)[C@H](C)O4)[C@H](C)O3)[C@@H](C)/C=C/C=C3\CO[C@@H]4[C@H](O)C(C)=C[C@@H](C(=O)O1)[C@]34O)O2 [Emamectin-B1a]	17.2 ± 7.2			
CC(C)[C@H](C(=O)O[C@H](C#N)c1cccc(Oc2ccccc2)c1)c1ccc(Cl)cc1 [Esfenvalerate]		118 ± 16		
CCOc1ccc(C(C)(C)COCc2cccc(Oc3ccccc3)c2)cc1 [Etofenprox]	4.05 ± 1.4	5.02 ± 0.29		
CSC1=N[C@@](C)(c2ccccc2)C(=O)N1Nc1ccccc1 [Fenamidone]	57.8 ± 2.2	79.4 ± 2.9	60.6 ± 12	
CC1(C(=O)Nc2ccc(O)c(Cl)c2Cl)CCCCC1 [Fenhexamid]		66.2 ± 1.5		
CC(Oc1ccc(Oc2nc3ccc(Cl)cc3o2)cc1)C(=O)O (stereo not drawn) [Fenoxaprop-P]	26.7 ± 2.6		42.2 ± 5	
COP(=S)(OC)Oc1ccc(SC)c(C)c1 [Fenthion]	59.7 ± 2.1		1.29 ± 0.38	47 ± 8.3
N#CCNC(=O)c1cnccc1C(F)(F)F [Flonicamid]	46.9 ± 1.9	73.8 ± 3.3	53.1 ± 3.7	
Cc1cc(C(F)(C(F)(F)F)C(F)(F)F)ccc1NC(=O)c1cccc(I)c1C(=O)NC(C)(C)CS(C)(=O)=O [Flubendiamide]	25.7 ± 6.4	53.1 ± 4.4		
N#Cc1c[nH]cc1-c1cccc2c1OC(F)(F)O2 [Fludioxonil]	40.1 ± 3.5	51.4 ± 2.9	67.2 ± 4.7	
O=C(NC(=O)c1c(F)cccc1F)Nc1ccc(Oc2ccc(C(F)(F)F)cc2Cl)cc1F [Flufenoxuron]	25.7 ± 5.2			24 ± 6.8
C#CCN1C(=O)COc2cc(F)c(N3C(=O)C4=C(CCCC4)C3=O)cc21 [Flumioxazin]	40.9 ± 0.44	5.96 ± 5.2	47.2 ± 4.8	38.5 ± 7.6
O=C(NCCc1ncc(C(F)(F)F)cc1Cl)c1ccccc1C(F)(F)F [Fluopyram]		67.8 ± 2.1		
O=C1C=C(N(Cc2ccc(Cl)nc2)CC(F)F)CO1 [Flupyradifurone]	39.3 ± 3.1	76.9 ± 2.6	43.9 ± 3.3	
CC(C)Oc1cccc(NC(=O)c2ccccc2C(F)(F)F)c1 [Flutolanil]	38.9 ± 0.5	60.8 ± 4.7	53.5 ± 4.5	
OC(Cn1cncn1)(c1ccc(F)cc1)c1ccccc1F (stereo not drawn) [Flutriafol]	41.9 ± 3.3	78.9 ± 4	43.2 ± 5.4	

Structure (SMILES)	chemical recovery [1] [%]	chemical recovery [2] [%]	chemical recovery [3] [%]	chemical recovery [4] [%]
COc1cc(OC)nc(NC(=O)NS(=O)(=O)c2cc(NC=O)ccc2C(=O)N(C)C)n1 [Foramsulfuron]		69 ± 4.2		
CNC(=O)Oc1cccc(/N=C/N(C)C)c1 [Formetanate]	8.98 ± 3.5	2.27 ± 3.9		
O=C(O)C(F)(OC(F)(F)C(F)(F)C(F)(F)F)C(F)(F)F (stereo not drawn) [HFPO-DA]	30.7 ± 3	67.4 ± 3.1		
CC(Oc1ccc(Oc2ncc(C(F)(F)F)cc2Cl)cc1)C(=O)O (stereo not drawn) [Haloxyfop-P]	33.1 ± 3.1	68.1 ± 2.8	41 ± 2.6	
Cc1nccc2c1[nH]c1ccccc12 [Harman]	34.9 ± 2.5	74.4 ± 3.2	36.2 ± 5.5	48.2 ± 6
COc1ccc2c(c1)[nH]c1c(C)nccc12 [Harmine]	37.3 ± 2.9		37.8 ± 5.3	48.6 ± 4.2
ClC1=C(Cl)C2(Cl)C3C4OC4C(Cl)C3C1(Cl)C2(Cl)Cl (stereo not drawn) [Heptachlor epoxide]	1.06 ± 0.28	18.7 ± 2.8		
CCCCCCCCCCCCCCCC[N+](C)(C)C [Hexadecyltrimethylammonium]	50.1 ± 19			
c1ccc(NNc2ccccc2)cc1 [Hydrazobenzene]	2.13 ± 0.29			
CC(=O)OCC(=O)[C@@]1(O)CC[C@H]2[C@@H]3CCC4=CC(=O)CC[C@]4(C)[C@H]3[C@@H](O)C[C@@]21C [Hydrocortisonacetate]				47.4 ± 6.2
N=C1NCCN1Cc1ccc(Cl)nc1 [Imidacloprid-guanidine]	26.9 ± 4.3	73 ± 3		
O=C(O)/C=C/c1c[nH]c2ccccc12 [Indole-3-acrylic-acid]	45.2 ± 13		37.5 ± 5	
CC(C)C1CCC(Cc2ccc(Cl)cc2)C1(O)Cn1cncn1 (stereo not drawn) [Ipconazole]	45.5 ± 5.7	75.8 ± 5.9	56.7 ± 6	
CC(C)NC(=O)N1CC(=O)N(c2cc(Cl)cc(Cl)c2)C1=O [Iprodione]	28.3 ± 5.6	6.49 ± 2.1		
O=C(O)c1cccc(C(=O)O)c1 [Isophthalic-acid]		12.5 ± 5.4		
CNC1(c2ccccc2Cl)CCCCC1=O (stereo not drawn) [Ketamine]	32.2 ± 2.1	59 ± 2.7	10.8 ± 4.5	45.4 ± 6.8

Other lines, results leading:

chemical recovery [1] [%]	chemical recovery [2] [%]	chemical recovery [3] [%]	chemical recovery [4] [%]	Structure (SMILES)
14.2 ± 4.3	71.1 ± 4.1			Nc1nc(=O)n([C@@H]2CS[C@H](CO)O2)cc1F [Emtricitabine]
7.89 ± 2.1	15.3 ± 1.4			O=C1C2CC3C1C1(Cl)C(Cl)C4(Cl)C2C3C1(Cl)C4(Cl)Cl (stereo not drawn) [Endrin ketone]
44.3 ± 4.6				CCCCc1ncc(/C=C(\Cc2cccs2)C(=O)O)n1Cc1ccc(C(=O)O)cc1 [Eprosartan]
45.3 ± 3	66.3 ± 2.4	56.1 ± 4		CCOC(=O)c1ccc(O)cc1 [Ethylparaben]
36.7 ± 2.9	49.9 ± 9.2	35.4 ± 4.9		CCOC(=O)C(C#N)=C(c1ccccc1)c1ccccc1 [Etocrylene]
44.8 ± 1.8	50.3 ± 6.1	42.8 ± 4.4		C=CCc1ccc(O)c(OC)c1 [Eugenol]
42.9 ± 4.1	67.5 ± 3.3	41.2 ± 4.4		CC(Cc1ccc(C(C)(C)C(=O)O)cc1)CN1C[C@@H](C)O[C@@H](C)C1 (stereo partly drawn) [Fenpropimorph-acid]
46.9 ± 2.6	74.6 ± 2.4	49.2 ± 5	49.4 ± 5.9	CN(C)C(=O)Nc1ccccc1 [Fenuron]
			46.7 ± 4.8	CC(=O)OCC(=O)[C@@]1(O)CC[C@H]2[C@@H]3CCC4=CC(=O)CC[C@]4(C)[C@@]3(F)[C@@H](O)C[C@@]21C [Fludrocortisone-21-acetate]
44.9 ± 11	51.1 ± 1.4	58 ± 5.7		O=C(O)c1ccccc1Nc1cccc(C(F)(F)F)c1 [Flufenamic-acid]
			46.1 ± 5.2	CC1(C)O[C@@H]2C[C@H]3[C@@H]4C[C@H](F)C5=CC(=O)C=C[C@]5(C)[C@@]4(F)[C@@H](O)C[C@]3(C)[C@]2(C(=O)CO)O1 [Fluocinolone acetonide]
58.1 ± 3.7	79.1 ± 2.3	65.8 ± 11		O=C(NCc1ncc(C(F)(F)F)cc1Cl)c1c(Cl)cccc1Cl [Fluopicolide]
			11 ± 2.6	c1ccc2c(c1)Cc1ccccc1-2 [Fluorene]
0.938 ± 0.39				CC(C)(C)c1ccc2oc(-c3ccc(-c4nc5cc(C(C)(C)C)ccc5o4)s3)nc2c1 [Fluorescent-Brightener-184]
	51.7 ± 2.5			OCCN1CCN(CCC=C2c3ccccc3Sc3ccc(C(F)(F)F)cc32)CC1 [Flupentixol]
65 ± 3	79.9 ± 1.2	69.6 ± 10		Cn1cc(C(=O)Nc2ccccc2-c2cc(F)c(F)c(F)c2)c(C(F)F)n1 [Fluxapyroxad]

chemical recovery [1] [%]	chemical recovery [2] [%]	chemical recovery [3] [%]	chemical recovery [4] [%]	Structure (SMILES)
13.7 ± 2.7	99.6 ± 18	39.1 ± 9.8		CC1COCc2cc3c(cc21)C(C)(C)C(C)C3(C)C (stereo not drawn) [Galaxolide]
16.6 ± 2.5	0.719 ± 0.66	14.5 ± 4.5		CC1(C)[C@@H](O[C@H]2O[C@H](C(=O)O)[C@@H](O)[C@H](O)[C@H]2O[C@@H]2O[C@H](C(=O)O)[C@@H](O)[C@H](O)[C@H]2O)CC[C@]2(C)[C@H]3C(=O)C=C4[C@@H]5C[C@@](C)(C(=O)O)CC[C@]5(C)CC[C@@]4(C)[C@]3(C)CC[C@@H]12 [Glycyrrhizin]
44 ± 3.3	57.9 ± 5	43.1 ± 2.6		N=C(N)NC(=O)Cc1c(Cl)cccc1Cl [Guanfacine]
8.65 ± 5.7	19.7 ± 6	3.2 ± 1.1		CCCCCCN [Hexylamine]
0.169 ± 0.033	41 ± 2.4			CC1CC(OC(=O)c2ccccc2O)CC(C)(C)C1 (stereo not drawn) [Homosalate]
			9.45 ± 7.5	CCN(CCO)CCCC(C)Nc1ccnc2cc(Cl)ccc12 (stereo not drawn) [Hydroxychloroquine]
			79.9 ± 19	O=C(O)Cc1c[nH]c2ccccc12 [Indole-3-acetic acid]
8.76 ± 5.2	52.5 ± 14			c1ccc2[nH]ccc2c1 [Indole]
36.8 ± 1.1	77.2 ± 5.5	19.4 ± 3.7		CCC(Cc1ccccc1)(C(=O)c1ccc(N2CCOCC2)cc1)N(C)C (stereo not drawn) [Irgacure-369]
0.236 ± 0.16				CCCCCCCCSc1nc(Nc2cc(C(C)(C)C)c(O)c(C(C)(C)C)c2)nc(SCCCCCCCC)n1 [Irganox-565]
	55.3 ± 6.4			CC(C)(C)c1cc(CCC(=O)NCCCCCCNC(=O)CCc2cc(C(C)(C)C)c(O)c(C(C)(C)C)c2)cc(C(C)(C)C)c1O [Irganox-1098]
42.1 ± 4.9	72.1 ± 4.6	56.7 ± 6.3		CC(C)C1C2CCC1c1c(NC(=O)c3cn(C)nc3C(F)F)cccc12 (stereo not drawn) [Isopyrazam]
			16.6 ± 4.9	CC[C@H](C)[C@H]1O[C@]2(CC[C@@H]1C)C[C@@H]1C[C@@H](C/C=C(\C)[C@@H](O[C@H]3C[C@H](OC)[C@@H](O[C@H]4C[C@H](OC)[C@@H](O)[C@H](C)O4)[C@H](C)O3)[C@@H](C)/C=C/C=C3\CO[C@@H]4[C@H](O)C(C)=C[C@@H](C(=O)O1)[C@]34O)O2 [Ivermectin B1a]
11.5 ± 2.3	30.3 ± 2.3			CC[C@H](C)[C@H]1O[C@]2(CC[C@@H]1C)C[C@@H]1C[C@@H](C/C=C(\C)[C@@H](O[C@H]3C[C@H](OC)[C@@H](O[C@H]4C[C@H](OC)[C@@H](O)[C@H](C)O4)[C@H](C)O3)[C@@H](C)/C=C/C=C3\CO[C@@H]4[C@H](O)C(C)=C[C@@H](C(=O)O1)[C@]34O)O2 [Ivermectin-B1a]
36.5 ± 3.8	30.8 ± 3.3	50.6 ± 7.1		N[C@@H](Cc1cc(I)c(Oc2cc(I)c(O)c(I)c2)c(I)c1)C(=O)O [L-Thyroxine]
